Key:
[1] = system: human peripheral blood mononuclear cells (PBMCs); assay: Toxicity to peripheral blood mononuclear cells (7-AAD / Annexin V flow cytometry); conditions: 24 and 48 hours of culture, versus DMSO controls; cyclosporin result at or above Bug/ml
Protocol: The cells (PBMCs) were then stained with 7-AAD and Annexin V directly conjugated to FITC or PE and subjected to flow cytometry. The percentage of necrotic (7-AAD+/Annexin V+), apoptotic (7-AAD-/Annexin V+) and viable (7-AAD-/Annexin V−) cells were calculated using CellQuest software (BD Biosciences). […] Error bars represent standard deviations between triplicate treatment groups.
Blood was collected from healthy adult donors and peripheral blood mononuclear cells (PBMCs) were purified using Histopaque 1077 (Sigma Aldrich, St. Louis, Mo.) according to the manufacturer's instructions. […] Cells were washed twice with PBS followed by staining with Annexin V directly conjugated to PE or FITC and 7-AAD using the Annexin V Apoptosis Detection Kit I (BD Biosciences, San Jose, Calif.) as per the manufacturer's instructions. Cells were then subjected to flow cytometry on a FACS Calibur equipped with an HTS loader (BD Biosciences, San Jose, Calif.). The staining allowed for differentiation among viable, necrotic and apoptotic cells. The studies were repeated at least three times and the variation between the dead cells detected was recorded as a function of concentration over 24 and 48 hour test periods.

[2] = system: IL-2 production by activated CD4+ T cells; assay: Inhibition of IL-2 production by activated CD4+ T cells (flow cytometry); type: cell-based; conditions: mouse spleen cells activated with ConA, anti-CD3/CD28 for 4 hours
Protocol: Total spleen cells were isolated from C57/B 6 mice and then were preactivated with ConA (1 ug/mL, Sigma-Aldrich, St. Louis, Mo.) for 2 days. These cells were then treated for 4 hours with cross-linked Hamster anti-mouse CD3/CD28 (1 ug/mL, BD Bioscience) antibodies in the Bruff's Medium containing 5% fetal bovine serum and 1× brefeldin A. After the activation, cells were fixed and analyzed for IL-2 production in the activated CD4± T cells using APC-conjugated anti-mouse IL-2 and PE-conjugated anti-mouse CD4 antibodies by flow cytometry.

Sclerotinia sclerotiorum = assay: Minimum inhibitory concentration (MIC), 24-well plate, potato dextrose broth; type: cell-based
Protocol: (§1) All plant pathogenic fungi used in the bioassay test system were obtained from Drs. Don Mathre and Nina Zidak of the MSU Department of Plant Sciences. All fungi were grown on potato dextrose agar (PDA) at 23° C. and only freshly transferred cultures (4-7 days old) were used in the fungal bioassay tests.
(§2) Assays were performed in sterile 24-well plates with each well containing 500 μl of potato dextrose broth. The plates were incubated from 48-288 hours at 25 C. The MIC was defined as the minimum concentration of compound resulting in no visible growth of the test organism. The compounds were dissolved in methanol which represented less than 0.5% total methanol in each test well. Several small plugs of agar 3×3×3 mm containing actively growing test fungi were then placed into each well with some wells serving as controls.

Botrytis cinerea = assay: as above; type: cell-based
Protocol: as §1, §2

Aspergillus fumigatus = assay: as above; type: cell-based
Protocol: as §1, §2

Rhizoctonia solani = assay: as above; type: cell-based
Protocol: as §1, §2

Geotrichum canididum = assay: as above; type: cell-based
Protocol: as §1, §2

Trichoderma virde = assay: as above; type: cell-based
Protocol: as §1, §2

Pythium ultimum = assay: as above; type: cell-based
Protocol: as §1, §2

Fusarium solani = assay: as above; type: cell-based
Protocol: as §1, §2

cyclic lipopeptide with a molecular mass of 1127.7 produced by C. dematium fungus CR-12; contains Val-Ile-Ser-Ile [Colutellin A, colutellin A]
Cytotoxicity on human PBMCs (necrosis and apoptosis) [1]: did not induce significant cell death above the DMSO controls at any concentration tested | IC50 [2]: 167 nM | MIC (Sclerotinia sclerotiorum; after 48 h): 3.6 µg/mL | MIC (Sclerotinia sclerotiorum; after 144 h): 10.8 µg/mL | MIC (Sclerotinia sclerotiorum; after 288 h): 32.4 µg/mL | MIC (Botrytis cinerea; after 48 h): 3.6 µg/mL | MIC (Botrytis cinerea; after 144 h): 10.8 µg/mL | MIC (Botrytis cinerea; after 288 h): 10.8 µg/mL | MIC (Aspergillus fumigatus; after 48 h): 2.4 µg/mL | MIC (Aspergillus fumigatus; after 144 h): >100 µg/mL | MIC (Aspergillus fumigatus; after 288 h): >100 µg/mL | MIC (Rhizoctonia solani; after 48 h): >100 µg/mL | MIC (Rhizoctonia solani; after 144 h): >100 µg/mL | MIC (Rhizoctonia solani; after 288 h): >100 µg/mL | MIC (Geotrichum canididum; after 48 h): 3.6 µg/mL | MIC (Geotrichum canididum; after 144 h): >100 µg/mL | MIC (Geotrichum canididum; after 288 h): >100 µg/mL | MIC (Trichoderma virde; after 48 h): >100 µg/mL | MIC (Trichoderma virde; after 144 h): >100 µg/mL | MIC (Trichoderma virde; after 288 h): >100 µg/mL | MIC (Pythium ultimum; after 48 h): >100 µg/mL | MIC (Pythium ultimum; after 144 h): >100 µg/mL | MIC (Pythium ultimum; after 288 h): >100 µg/mL | MIC (Fusarium solani; after 48 h): 7.2 µg/mL | MIC (Fusarium solani; after 144 h): >100 µg/mL | MIC (Fusarium solani; after 288 h): >100 µg/mL

Reference: patent US8765147B2, “Endophytic fungi from Pteromischum sp. plant, compounds and methods of use” (The Regents of the University of California, priority 2007, dated 2014)
